Results published in publication PMC10653547, “Synergistic effect of two antimicrobial peptides, BP203 and MAP-0403 J-2 with conventional antibiotics against colistin-resistant Escherichia coli and Klebsiella pneumoniae clinical isolates” (PLOS ONE, 2023).

Legend:
[1] = test system: colistin-resistant K. pneumoniae clinical isolates; test: Checkerboard assay for synergy testing; type: cell-based, Klebsiella pneumoniae
Experimental: (§1) The synergistic activities of various two-antimicrobial combinations against colistin-resistant E. coli and K. pneumoniae isolates were evaluated using the checkerboard assay, which was performed in 96-well plates. […] Two-fold serial dilutions of peptides and antibiotics were independently prepared in CAMHB. Afterward, a mixture of different concentrations of the antibiotics and peptides was added to the wells of the microplates. Antibiotics and peptides were also dispended alone in the first row and the first column, respectively. Bacterial inoculum was added to the 96-well plate to achieve a final concentration of 5 × 10^5 CFU/mL. Then, plates were incubated at 37 °C for 20–24 h. MICs were recorded as the minimum concentration of antimicrobial agents without bacterial growth. The interaction between the antimicrobials was determined by calculating the fractional inhibitory concentration index (FICI) according to the formula: FICI = FIC(drug A) + FIC(drug B), where FIC = the MIC of the drug when in the combination/MIC of drug tested individually.

[2] = test system: colistin-resistant E. coli clinical isolates; test: Checkerboard assay for synergy testing; type: cell-based, Escherichia coli; details: checkerboard Ceftazedime+BP203
Experimental: as §1

[3] = checkerboard BP203 x meropenem, KP-01
[4] = checkerboard BP203 x meropenem, KP-02
[5] = checkerboard BP203 x meropenem, KP-03
[6] = checkerboard BP203 x meropenem, KP-04
[7] = checkerboard BP203 x meropenem, KP-05
[8] = checkerboard BP203 x meropenem, KP-06
[9] = checkerboard BP203 x meropenem, KP-08
[10] = checkerboard BP203 x meropenem, KP-09
[11] = checkerboard BP203 x meropenem, KP-10
[12] = checkerboard MAP-0403 J-2 x meropenem, KP-01
[13] = checkerboard MAP-0403 J-2 x meropenem, KP-02
[14] = checkerboard MAP-0403 J-2 x meropenem, KP-03
[15] = checkerboard MAP-0403 J-2 x meropenem, KP-05
[16] = checkerboard MAP-0403 J-2 x meropenem, KP-06
[17] = checkerboard MAP-0403 J-2 x meropenem, KP-07
[18] = checkerboard MAP-0403 J-2 x meropenem, KP-08
[19] = checkerboard MAP-0403 J-2 x meropenem, KP-09
[20] = checkerboard MAP-0403 J-2 x meropenem, KP-10
[21] = isolate KP-01, checkerboard Ceftazedime+BP203
[22] = isolate KP-02, checkerboard Ceftazedime+BP203
[23] = isolate KP-03, checkerboard Ceftazedime+BP203
[24] = isolate KP-04, checkerboard Ceftazedime+BP203
[25] = isolate KP-05, checkerboard Ceftazedime+BP203
[26] = isolate KP-06, checkerboard Ceftazedime+BP203
[27] = isolate KP-07, checkerboard Ceftazedime+BP203
[28] = isolate KP-08, checkerboard Ceftazedime+BP203
[29] = isolate KP-09, checkerboard Ceftazedime+BP203
[30] = isolate KP-10, checkerboard Ceftazedime+BP203

With `C[C@@H](O)[C@H]1C(=O)N2C(C(=O)O)=C(S[C@@H]3CN[C@H](C(=O)N(C)C)C3)[C@H](C)[C@H]12` [Meropenem, meropenem] the MIC alone [1, 3] was 8 µg/mL, the MIC combination [1, 3] was 2 µg/mL and the MIC alone [1, 4] was 16 µg/mL. The MIC combination [1, 4] was 4 µg/mL, the MIC alone [1, 5] was 64 µg/mL and the MIC combination [1, 5] was 16 µg/mL. For the same compound, the MIC alone [1, 6] was 256 µg/mL, the MIC combination [1, 6] was 64 µg/mL and the MIC alone [1, 7] was 64 µg/mL. The MIC combination [1, 7] was 16 µg/mL, the MIC alone [1, 8] was 16 µg/mL and the MIC combination [1, 8] was 4 µg/mL. The MIC combination ([1]; checkerboard BP203 x meropenem, KP-07) was 32 µg/mL, the MIC alone [1, 9] was 64 µg/mL and the MIC combination [1, 9] was 8 µg/mL. For the same compound, the MIC alone [1, 10] was 64 µg/mL, the MIC combination [1, 10] was 16 µg/mL and the MIC alone [1, 11] was 16 µg/mL. It also gave an MIC combination [1, 11] of 4 µg/mL, an MIC alone [1, 12] of 4 µg/mL and an MIC combination [1, 12] of 2 µg/mL. The MIC alone [1, 13] was 8 µg/mL, the MIC combination [1, 13] was 8 µg/mL and the MIC alone [1, 14] was 32 µg/mL. It also gave an MIC combination [1, 14] of 0.25 µg/mL, an MIC alone [1, 15] of 32 µg/mL and an MIC combination [1, 15] of 32 µg/mL. The MIC alone [1, 16] was 8 µg/mL, the MIC combination [1, 16] was 4 µg/mL and the MIC alone [1, 17] was 64 µg/mL. The MIC combination [1, 17] was 64 µg/mL, the MIC alone [1, 18] was 64 µg/mL and the MIC combination [1, 18] was 64 µg/mL. It also gave an MIC alone [1, 19] of 64 µg/mL, an MIC combination [1, 19] of 32 µg/mL and an MIC alone [1, 20] of 16 µg/mL. The MIC combination [1, 20] was 8 µg/mL.
`CC(C)(O/N=C(\C(=O)N[C@@H]1C(=O)N2C(C(=O)[O-])=C(C[n+]3ccccc3)CS[C@H]12)c1csc(N)n1)C(=O)O` [Ceftazedime] gave an MIC alone ([2]; isolate EC-01) of 8 µg/mL, an MIC combination ([2]; isolate EC-01) of 4 µg/mL and an MIC alone ([2]; isolate EC-02) of 16 µg/mL. The MIC combination ([2]; isolate EC-02) was 4 µg/mL, the MIC alone ([2]; isolate EC-03) was 32 µg/mL and the MIC combination ([2]; isolate EC-03) was 8 µg/mL. It also gave an MIC alone ([2]; isolate EC-04) of 32 µg/mL, an MIC combination ([2]; isolate EC-04) of 8 µg/mL and an MIC alone ([2]; isolate EC-05) of 1 µg/mL. For the same compound, the MIC combination ([2]; isolate EC-05) was 0.25 µg/mL, the MIC alone ([2]; isolate EC-06) was 16 µg/mL and the MIC combination ([2]; isolate EC-06) was 0.5 µg/mL. The MIC alone ([2]; isolate EC-07) was 16 µg/mL, the MIC combination ([2]; isolate EC-07) was 8 µg/mL and the MIC alone ([2]; isolate EC-08) was 0.5 µg/mL. The MIC combination ([2]; isolate EC-08) was 0.25 µg/mL, the MIC alone ([2]; isolate EC-09) was 16 µg/mL and the MIC combination ([2]; isolate EC-09) was 8 µg/mL. For the same compound, the MIC alone ([2]; isolate EC-10) was 8 µg/mL, the MIC combination ([2]; isolate EC-10) was 4 µg/mL and the MIC alone [1, 21] was 128 µg/mL. For the same compound, the MIC combination [1, 21] was 8 µg/mL, the MIC alone [1, 22] was 128 µg/mL and the MIC combination [1, 22] was 16 µg/mL. For the same compound, the MIC alone [1, 23] was 512 µg/mL, the MIC combination [1, 23] was 128 µg/mL and the MIC alone [1, 24] was 512 µg/mL. It also gave an MIC combination [1, 24] of 512 µg/mL, an MIC alone [1, 25] of 512 µg/mL and an MIC combination [1, 25] of 4 µg/mL. The MIC alone [1, 26] was 256 µg/mL, the MIC combination [1, 26] was 16 µg/mL and the MIC alone [1, 27] was 1020 µg/mL. The MIC combination [1, 27] was 512 µg/mL, the MIC alone [1, 28] was 512 µg/mL and the MIC combination [1, 28] was 64 µg/mL. For the same compound, the MIC alone [1, 29] was 512 µg/mL, the MIC combination [1, 29] was 128 µg/mL and the MIC alone [1, 30] was 512 µg/mL. It also gave an MIC combination [1, 30] of 32 µg/mL.
